Assays:
A549 = test: Cytotoxicity assay (propidium iodide), A549; format: cell-based; conditions: Homo sapiens; A549 (C1a, lung); 48 hours
H460 = test: Cytotoxicity assay (propidium iodide), H460; format: cell-based; conditions: Homo sapiens, NCI-H460; H460 (C1b, lung); 48 hours
A2780 = test: Cytotoxicity assay (propidium iodide), A2780; format: cell-based; conditions: Homo sapiens; A2780 (C3a, ovarian); 48 hours
Procedure: (§4) Cells from cell lines as mentioned in the table given below were seeded at a density of 3000 cells/well in a white opaque 96-well plate. Following incubation at 37° C./5% CO2 for a period of 18-24 hours, the cells were treated with various concentrations (stock solution was prepared in DMSO and subsequent dilutions were made in media as per ATCC guidelines) of the representative compounds of present invention (refer table 3) for a period of 48 hours. At the end of treatment, the spent culture medium was discarded, the cells were washed with 1×PBS and 200 μl of 7 μg/ml propidium iodide was added to each well. The plates were frozen at −70° C. for at least 24 hours. For analysis, the plates were brought to RT, allowed to thaw and were read in PolarStar fluorimeter with the fluorescence setting. The percentage of viable cells in the non treated set of wells was considered to be 100 and the percentage viability following treatment was calculated accordingly. IC50 values were calculated from graphs plotted using these percentages.

OVCAR 3 = test: Cytotoxicity assay (propidium iodide), OVCAR 3; format: cell-based; conditions: Homo sapiens; OVCAR 3 (C3c, ovarian); 48 hours
Procedure: as §4

HCT116 = test: Cytotoxicity assay (propidium iodide), HCT116; format: cell-based; conditions: Homo sapiens, HCT-116; HCT116 (C4b, colon); 48 hours
Procedure: as §4

PANC 1 = test: Cytotoxicity assay (propidium iodide), PANC 1; format: cell-based; conditions: Homo sapiens; PANC 1 (C5a, pancreatic); 48 hours
Procedure: as §4

CAPAN1 = test: Cytotoxicity assay (propidium iodide), CAPAN1; format: cell-based; conditions: Homo sapiens, CAPAN-1; CAPAN1 (C5b, pancreatic); 48 hours
Procedure: as §4

STAT3 = STAT3 bioassay (Hela Stat3-luc, luciferase); format: cell-based; conditions: Homo sapiens, Oncostatin M induction
Procedure: Cells were seeded (Hela Stat3-luc, ATCC P/N 30-2002) in a white 96 well plate (Nunc cat.no.136101) at a density of 20,000cells/well in 179 μl volume per well (DMEM from Sigma containing 10% FCS). The plate was incubated for 24 hours at 37° C./5% CO2. The cells (wells in triplicates) were then treated with 1 μl/well of 200× stock of the desired compound concentration prepared in 100% DMSO. Curcumin was used as a standard or positive control, added 10 μg/ml in triplicate. DMSO was used as medium control (1 μl/well added in triplicates). The plate was incubated at 37° C./5% CO2 for 1 hour. 20 μl/well Oncostatin M (Oncostatin M, Human, Recombinant, E. coli, Cat.No. 496260, 10 μg from Calbiochem) was added to treated wells, induction control (in triplicate) (1000 ng/ml stock prepared in serum free medium to get final concentration 100 ng/ml). The plate was then incubated for 7-8 hours at 37° C./5% CO2 for induction. A typical assay would consist of triplicate of medium control, triplicate of induction control, triplicate of positive/standard control and test compounds at desired concentration in triplicates. For termination Luciferase assay protocol was followed where the culture medium was removed from all the wells.
200 μl well of PBS was added to remove traces of medium and compound. The PBS was discarded. 40 μl/well of 1× lysis buffer was added to all the wells. The plate was incubated at RT for 20 minutes with intermittent shaking. 100 μl/well of LAB reagent was added to all the wells in dark. {LAB reagent for 1 plate=8 ml Luciferase assay buffer (LAB)+1 ml Coenzyme A (Sigma cat no. C3019) (2.1 mg/ml stock in LAB)+530 μL of ATP (Sigma cat.no.A2383) (5.85 mg/ml stock in LAB)+1 ml luciferin reagent (Promega cat no.245355) (2 mg/ml stock in LAB, protect from light)}.
The luminescence was immediately read on polar star. The values were expressed as percentage inhibition, in terms of treated values to that STAT3 (induction control). IC50 values were calculated from graphs using these percentages.

IL-6 [1] = test: Human monocyte assay, LPS-stimulated IL-6; format: cell-based; conditions: Monocyte; human monocytes, 1 μg/ml LPS, 5 hours
Outline: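 Adherent human PBMC-derived monocytes (2×10^4/well) were cultured 48 h, preincubated 30 min with compound or 0.5% DMSO, then stimulated with 1 μg/ml E. coli LPS for 5 h at 37° C. TNF-α and IL-6 in supernatants were measured by ELISA.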

TNF-α [2] = test: Human monocyte assay, LPS-stimulated TNF-α; format: cell-based; conditions: human monocytes, 1 μg/ml LPS, 5 hours
Procedure: The assay was designed as in the reference, Physiol.
Peripheral blood mononuclear cells (hPBMC) were harvested from human blood and suspended in RPMI 1640 culture medium containing 10% FCS, 100 U/mL penicillin and […] streptomycin (assay medium). Monocytes in the hPBMCs were counted using a Coulter Counter following which the cells were resuspended at 2×10^5 monocytes/mL. A cell suspension containing 2×10^4 monocytes was aliquoted per well of a 96-well plate. Subsequently, the hPBMCs were incubated for 4-5 hours at 37° C., 5% CO2 (During the incubation, the monocytes adhered to the bottom of 96-well plastic culture plate). Following the incubation, the non-adherent lymphocytes were washed with assay medium and the adherent monocytes re-fed with assay medium. After a 48-hour incubation period (37° C., 5% CO2), monocytes were pretreated with various concentrations of representative compounds of present invention (refer to table 6 and 7) (prepared in DMSO) or vehicle (0.5% DMSO) for 30 minutes and stimulated with 1 μg/ml LPS (Escherchia coli 0111:B4, Sigma Chemical Co., St. Louis, Mo.). The incubation was continued for 5 hours at 37° C., 5% CO2. Supernatants were harvested, assayed for IL-6 and TNF-α by ELISA as described by the manufacturer (BD Biosciences, USA). Dexamethasone (10 μM) was used as standard for this assay. […] Biological results for both IL-6 and TNFα are indicated in Table 6 and Table 7 respectively.

PC3 = test: Cytotoxicity assay (propidium iodide), PC3; conditions: Homo sapiens, PC-3, 48 h, read-out: IC50 cytotoxicity
IL-6 [3] = test: Synovial tissue assay, IL-6; format: cell-based; conditions: Homo sapiens; synovial tissue cells from rheumatoid arthritis patients, 16 hours
Procedure: (§1) The assay was designed as in the reference, Lancet, 2(8657), 244-7, Jul.
(§2) Stock Solution: Compounds of the present invention were dissolved in DMSO to obtain a stock solution of 20 mM.
(§3) Synovial tissue was obtained from rheumatoid arthritis patients undergoing knee replacement surgery. The tissue was minced into small pieces and digested in RPMI medium containing 100 U/ml penicillin-G, 100 μg/ml streptomycin, 50 ng/ml amphotericin B (GIBCO; USA), 1.33 mg/ml collagenase Type I (Worthington Biochemical Corporation, New Jersey), 0.5 μg/ml DNAse Type I (Sigma Aldrich; St. Louis, Mo.) and 8.33 U/ml heparin (Biological E. Limited, India) for 3 hours at 37° C., 5% CO2. The digested tissue was filtered through a membrane (mesh size 70 micron; Sigma Aldrich). Subsequently, the cells were washed 3 times and resuspended in complete medium (RPMI supplemented with 5% FBS and 5% human serum-AB+) at a concentration of 1×10^6 cells/ml. All cell washes in this assay were performed using Rosewall Park Memorial Institute (RPMI)-1640 medium (JRH; Australia). For the experiment, 100 μl of cell suspension was added to the wells of a 96-well culture plate. Following cell plating, 100 μl of the culture medium and 1 μl of various concentrations (0.01, 0.03, 0.1, 0.3, 1, 3, 10, 30 and 100 μM) of the compounds of present invention dissolved in DMSO were added to the cells. The final concentration of DMSO was adjusted to 0.5%. For experimental purposes, 1 μl of […] concentrated solution of the compounds of present invention were dissolved in 200 μl cell suspension to achieve a final concentration of 0.01, 0.03, 0.1, 0.3, 1, 3, 10, 30 and 100 μM. The vehicle (0.5% DMSO) was used as control. 10 μM dexamethasone (Sigma Aldrich) or 1 μM 7-hydroxyfluorinide (7HF) were used as standards for the experiments. The plates were incubated for 16 hours at 37° C., 5% CO2. Subsequently, the supernatants were harvested and stored at −70° C. The amounts of TNF-α, IL-6 and interleukin-8 (IL-8) in the supernatants were assayed using OptiEIA ELISA sets, (BD BioSciences Pharmingen). The protocol followed was as per manufacturers instructions. […] The cytotoxicity of test compounds in synovial cells was assessed by MTS assay. Absorbance was measured at 490 nm. Percent cytotoxicity was calculated by the equation: % Cytotoxicity=(A−B)/A×100 where, A is the absorbance of cells treated with DMSO alone and B is the absorbance of cells treated with the test article.

TNF-α [4] = test: Synovial tissue assay, TNF-α; format: cell-based; conditions: Homo sapiens; synovial tissue cells from rheumatoid arthritis patients, 16 hours
Procedure: as §1, §2, §3

IL-8 = test: Synovial tissue assay, IL-8; format: cell-based; conditions: Homo sapiens; synovial tissue cells from rheumatoid arthritis patients, 16 hours
Procedure: as §1, §2, §3

PI3Kα kinase = target: T1, PI3Kα kinase (Homo sapiens, UniProt P42336); test: Kinase assay (PI3Kα); format: biochemical; conditions: read-out: IC50 (μM) for PI3K inhibition
T1 construct: purchased Millipore, USA
T1 sequence (P42336 whole entry): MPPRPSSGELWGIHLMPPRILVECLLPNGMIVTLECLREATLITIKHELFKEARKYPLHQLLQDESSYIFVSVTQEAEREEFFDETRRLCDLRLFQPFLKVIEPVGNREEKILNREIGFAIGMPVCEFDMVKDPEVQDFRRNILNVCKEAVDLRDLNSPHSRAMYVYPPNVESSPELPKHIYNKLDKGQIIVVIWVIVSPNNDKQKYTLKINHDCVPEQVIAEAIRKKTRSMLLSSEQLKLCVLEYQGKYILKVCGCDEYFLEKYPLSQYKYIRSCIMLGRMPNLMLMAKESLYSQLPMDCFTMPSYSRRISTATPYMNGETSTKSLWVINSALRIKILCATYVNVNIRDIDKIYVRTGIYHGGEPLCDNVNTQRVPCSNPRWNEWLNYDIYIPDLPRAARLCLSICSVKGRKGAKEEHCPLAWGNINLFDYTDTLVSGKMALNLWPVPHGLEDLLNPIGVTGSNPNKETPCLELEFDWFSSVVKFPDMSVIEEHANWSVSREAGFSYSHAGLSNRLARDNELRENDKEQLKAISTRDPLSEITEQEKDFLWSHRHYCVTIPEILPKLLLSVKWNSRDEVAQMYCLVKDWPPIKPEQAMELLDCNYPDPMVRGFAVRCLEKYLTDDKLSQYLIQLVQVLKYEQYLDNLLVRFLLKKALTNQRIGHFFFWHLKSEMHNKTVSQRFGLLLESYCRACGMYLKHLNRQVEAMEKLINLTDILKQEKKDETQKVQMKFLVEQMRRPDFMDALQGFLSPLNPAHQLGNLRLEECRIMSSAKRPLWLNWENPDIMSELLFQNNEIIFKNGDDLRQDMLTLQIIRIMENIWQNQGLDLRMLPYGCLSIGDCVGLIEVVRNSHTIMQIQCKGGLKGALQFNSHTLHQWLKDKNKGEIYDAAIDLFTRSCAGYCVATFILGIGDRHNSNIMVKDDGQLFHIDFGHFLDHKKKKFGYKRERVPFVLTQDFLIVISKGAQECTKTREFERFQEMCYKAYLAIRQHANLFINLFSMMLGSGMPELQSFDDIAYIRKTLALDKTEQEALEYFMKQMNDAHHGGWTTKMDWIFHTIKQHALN
T1 sequence (P27986 whole entry partner): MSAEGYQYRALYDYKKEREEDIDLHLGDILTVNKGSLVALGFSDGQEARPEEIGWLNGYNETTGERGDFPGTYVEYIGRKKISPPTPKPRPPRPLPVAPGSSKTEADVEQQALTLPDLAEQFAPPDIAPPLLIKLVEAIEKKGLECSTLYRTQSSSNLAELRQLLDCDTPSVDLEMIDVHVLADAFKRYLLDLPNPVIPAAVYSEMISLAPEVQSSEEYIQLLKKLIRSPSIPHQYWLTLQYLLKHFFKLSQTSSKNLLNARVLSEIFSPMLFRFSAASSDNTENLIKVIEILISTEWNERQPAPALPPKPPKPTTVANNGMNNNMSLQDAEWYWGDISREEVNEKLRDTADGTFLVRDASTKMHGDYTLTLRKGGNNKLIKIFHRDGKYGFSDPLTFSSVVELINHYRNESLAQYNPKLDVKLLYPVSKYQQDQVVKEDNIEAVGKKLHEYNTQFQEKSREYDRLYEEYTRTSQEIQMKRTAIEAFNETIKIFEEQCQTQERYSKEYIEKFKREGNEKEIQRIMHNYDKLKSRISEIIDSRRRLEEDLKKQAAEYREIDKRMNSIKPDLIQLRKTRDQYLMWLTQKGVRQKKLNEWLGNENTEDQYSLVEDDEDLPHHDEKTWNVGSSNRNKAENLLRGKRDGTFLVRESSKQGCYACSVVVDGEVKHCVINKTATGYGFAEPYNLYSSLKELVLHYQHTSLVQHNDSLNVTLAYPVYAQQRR
Procedure: The kinase reaction was carried out in a 25 μL volume in a 1.5 mL microcentrifuge tube. The reaction mixture consisted of kinase buffer (10 mM Hepes, pH 7.5, 50 mM MgCl2), 20 ng PI3Kα kinase (Millipore, USA), 12.5 μg phosphotidylinositol (PI), 10 μM ATP and 1 μCi ^32γ P […]. […] The reactions were incubated at 30° C. for 20 minutes and were terminated by adding 1:1 mixture of MeOH and CHCl3. The tube contents were mixed on a vortex mixer and centrifuged at 10000 rpm for 2 minutes. 10 μL of the organic (lower) phase was spotted on to a TLC plate (silica, mobile phase: n-propanol and 2 M glacial acetic acid in 65:35 ratio). The plates were dried and exposed to an X-ray film. The bands appearing as a result of ^32γ P incorporation in PI were quantitated using the Quantityl)ne (BioRad, USA) densitometry program. PI-103 (Calbiochem, USA) was used as a standard.

MDA MB 468 = test: Cytotoxicity assay (propidium iodide), MDA MB 468; format: cell-based; conditions: Homo sapiens; MDA MB 468 (C6b, breast); 48 hours
Procedure: as §4

MCF7 = test: Cytotoxicity assay (propidium iodide), MCF7; format: cell-based; conditions: Homo sapiens; MCF7 (C6c, breast); 48 hours
Procedure: as §4

G361 = test: Cytotoxicity assay (propidium iodide), G361; format: cell-based; conditions: G-361; G361 (C9a, human melanoma); 48 hours
Procedure: as §4

| Structure (SMILES) | IC50 (A549) [nM] | IC50 (H460) [nM] | IC50 (A2780) [nM] | IC50 (OVCAR 3) [nM] | IC50 (HCT116) [nM] | IC50 (PANC 1) [nM] | IC50 (CAPAN1) [nM] | IC50 (STAT3) [nM] | IC50 (IL-6 [1]) [µM] | IC50 (TNF-α [2]) [nM] | IC50 (PC3) [nM] | IC50 (IL-6 [3]) [µM] | IC50 (TNF-α [4]) [µM] | IC50 (IL-8) [µM] | IC50 (PI3Kα kinase) [µM] | IC50 (MDA MB 468) [nM] | IC50 (MCF7) [nM] | IC50 (G361) [nM] |
| --- | --- | --- | --- | --- | --- | --- | --- | --- | --- | --- | --- | --- | --- | --- | --- | --- | --- | --- |
| CN(N=Cc1cnc2ccc(-c3cccnc3)cn12)S(=O)(=O)c1ccccc1 [Example 1, N-methyl-N′-((6-(pyridin-3-yl)imidazo[1,2-a]pyridin-3-yl)methylene)benzenesulfonohydrazide] | 10 to 5000 | 10 to 5000 | 10 to 5000 | 10 to 5000 | 10 to 5000 | 10 to 5000 | 10 to 5000 | 5000 to 10000 | 0.001 to 5 | 1 to 1000 | 10 to 5000 |  |  |  |  |  |  |  |
| CN(N=Cc1cnc2ccc(-c3cccnc3)cn12)S(=O)(=O)c1ccccc1F [Example 4, 2-Fluoro-N-methyl-N′-((6-(pyridine-3-yl)imidazo[1,2-a]pyridine-3-yl)methylene)benzenesulfonohydrazide] |  |  |  |  |  |  |  | 100 to 5000 | 0.001 to 5 | 1 to 1000 |  | 0.01 to 0.3 | 0.01 to 0.3 | 0.3 to 3 |  |  |  |  |
| CN(/N=C/c1cnc2ccc(-c3cccnc3)cn12)S(=O)(=O)c1cccc(C#N)c1 [Example 10, (E)-3-cyano-N-methyl-N′-((6-(pyridin-3-yl)imidazo[1,2-a]pyridin-3-yl)methylene)benzenesulfonohydrazide] | 10 to 5000 | 10 to 5000 | 10 to 5000 | 10 to 5000 | 10 to 5000 |  |  | 100 to 5000 | 0.001 to 5 | 1 to 1000 | 10 to 5000 |  |  |  |  |  |  |  |
| CN(N=Cc1cnc2ccc(-c3cccnc3)cn12)S(=O)(=O)c1ccc(F)cc1F [Example 13, 2,4-Difluoro-N-methyl-N′-((6-(pyridine-3-yl)imidazo[1,2-a]pyridine-3-yl)methylene) benzenesulfonohydrazide] |  |  |  |  |  |  |  | 5000 to 10000 | 0.001 to 5 | 1 to 1000 |  | 0.01 to 0.3 | 0.01 to 0.3 | 0.3 to 3 |  |  |  |  |
| CN(N=Cc1cnc2ccc(-c3cccnc3)cn12)S(=O)(=O)c1c(F)cccc1F [Example 14, 2,6-Difluoro-N-methyl-N′-((6-(pyridine-3-yl)imidazo[1,2-a]pyridine-3-yl)methylene) benzenesulfonohydrazide] |  |  |  |  |  |  |  | 5000 to 10000 | 0.001 to 5 | 1 to 1000 |  | 0.01 to 0.3 | 0.01 to 0.3 | 0.3 to 3 | 0.01 to 0.5 |  |  |  |
| Cc1ccc(F)c(S(=O)(=O)N(C)N=Cc2cnc3ccc(-c4cccnc4)cn23)c1 [Example 19, 2-Fluoro-N, 5-dimethyl-N′-((6-(pyridine-3-yl)imidazo[1,2-a]pyridine-3-yl)methylene) benzenesulfonohydrazide] |  |  |  |  |  |  |  |  | 0.001 to 5 | 1 to 1000 |  | 0.3 to 3 | 0.3 to 3 | 0.3 to 3 |  |  |  |  |
| CN(N=Cc1cnc2ccc(-c3cccnc3)cn12)S(=O)(=O)c1cccc2cccnc12 [Example 30, N-methyl-N′-((6-(pyridine-3-yl)imidazo[1,2-a]pyridine-3-yl)methylene) quinoline-8-sulfonohydrazide] | > 5000 | > 5000 |  |  |  |  |  |  | ≥ 5 |  | > 5000 |  |  |  |  | > 5000 | > 5000 | > 5000 |
| Cc1ccc([N+](=O)[O-])cc1S(=O)(=O)N(C)N=Cc1cnc2ccc(-c3cnc4ccccc4c3)cn12 [Example 99, N, 2-Dimethyl-5-nitro-N′-((6-(quinolin-3-yl)imidazo[1,2-a]pyridine-3-yl)methylene)benzenesulfonohydrazide] | 10 to 5000 | 10 to 5000 | 10 to 5000 | 10 to 5000 | 10 to 5000 |  |  |  | 0.001 to 5 |  | 10 to 5000 |  |  |  |  |  |  |  |

— patent publication US8741932B2, “Imidazopyridine derivatives” (Piramal Enterprises Limited, priority 2009, dated 2014)
